Measured values published in US12227536B2, “Crystalline forms of an NRTTI compound” (Merck Sharp & Dohme LLC, priority 2018, dated 2025).

How the values were obtained:
[1] = system: lymphoid derived cell lines and peripheral blood mononuclear cells; conditions: in vitro; cited from earlier work
[2] = Solubility of EFdA Forms 1, 2 and 4 in acetonitrile as a function of temperature; type: physicochemical; conditions: for Solubility / Solubility Ratio (Form 1/4): acetonitrile; for Form 1 and Form 4 ΔΔG: calculated; for Relative thermodynamic stability of the phase: from solubility in acetonitrile between 25.0 and 65.0 °C
Procedure: The Gibbs free energy (ΔG) of a phase is the fundamental thermodynamic parameter that determines the relative stability of a polymorphs at a given temperature. The solubility of a particular polymorph is related to the ΔG by the equation ΔG=−RTln (solubility). The polymorph with the lowest solubility is considered to be the thermodynamically stable phase at a given temperature. Table 6 lists the measured solubility for Forms 1, 2 and 4 of EFdA in acetonitrile between 25.0 and 65.0° C. […] The relatively low ΔΔG values for conversion of Form 1 to Form 4 (i.e., the energy gap between Form 1 and Form 4 is small; 0.21-0.35 kJ/mol), combined with the fast crystallization kinetics of Form 1 as compared to Form 4, result in difficulties isolating Form 4 using conventional methods of polymorph screening.

[3] = Critical water activity from solubility in acetonitrile as a function of water content; type: physicochemical; conditions: 25 °C
Procedure: The thermodynamic parameter for the stability of the monohydrate Form MH and anhydrate Form 4 of EFdA is the critical water activity. Below this water activity, anhydrous Form 4 is thermodynamically preferred. Above this water activity, monohydrate Form MH is thermodynamically preferred. The solubility of EFdA monohydrate Form MH and anhydrate Forms 1 and 4 were determined in acetonitrile as a function of water content at 25.0° C. The critical water activity for the EFdA monohydrate/Form 4 system at 25° C. was determined to be 0.3.

[4] = Crystal form stability in hot melt extrusion (HME) of EFdA/EVA implant product, by XRD; type: physicochemical
Procedure: Anhydrate crystalline Forms 1, 2, and 4 of EFdA were isolated by hot melt extrusion (HME) processing. Micronized ethylene vinyl acetate (EVA) polymer and monohydrate crystalline Form MH of EFdA were blended with a Turbula T2F mixer at various ratios: 30, 35, 40, 45 and 50 wt % drug. The pre-blend was hot melt extruded with an 18 mm Leistritz twin screw extruder with a 25:1 L/D, throughput of 400 g/hr, temperatures ranging from 100-140° C., feed zone at 40° C., and screw speed at 30 rpm. Two screw configurations were used, both predominately consisting of conveying elements with different mixing sections. The less aggressive screw design contained a mixing section consisting of conveying, kneading elements each 15 mm in length, with twisting angles of 30°, 60°, and 60° (“HME low shear Process A”). The more aggressive screw design included additional mixing segments after the mixing section used in the less aggressive design: conveying, kneading elements each 15 mm in length, with a twisting angle of 90° (“HME high shear Process B”). For both extrusion set-ups, the strands were then air-cooled and pelletized to form micropellets. The pellets were then extruded with a ½″ American Kuhne single screw extruder with temperatures ranging from 110-140° C., feed zone at 25° C., and screw speed at 20-25 rpm to form a 2±0.05 mm diameter filament, and then cut to a length of 40±2 mm. […]

Compound | Solubility ([2]; 25.0 °C) [mg/g solv.] | Solubility ([2]; 35.0 °C) [mg/g solv.] | Solubility ([2]; 45.0 °C) [mg/g solv.] | Solubility ([2]; 55.0 °C) [mg/g solv.] | Solubility ([2]; 65.0 °C) [mg/g solv.] | Relative thermodynamic stability of the phase [2] | also measured
C#C[C@]1(COP(=O)(O)OP(=O)(O)OP(=O)(O)O)O[C@@H](n2cnc3c(N)nc(F)nc32)C[C@@H]1O [EFdA-TP] |  |  |  |  |  |  | Intracellular half-life [1]: exceeds 72 hrs
C#C[C@]1(CO)O[C@@H](n2cnc3c(N)nc(F)nc32)C[C@@H]1O [Form 1, 4′-Ethynyl-2-fluoro-2′-deoxyadenosine] | 2.15 ± 0.02 | 2.43 ± 0.01 | 3.44 ± 0.02 | 4.74 ± 0.02 | 6.81 ± 0.03 |  | Solubility Ratio (Form 1/4) ([2]; 25.0 °C): 1.15; Solubility Ratio (Form 1/4) ([2]; 35.0 °C): 1.13; Solubility Ratio (Form 1/4) ([2]; 45.0 °C): 1.08; Solubility Ratio (Form 1/4) ([2]; 55.0 °C): 1.12; Solubility Ratio (Form 1/4) ([2]; 65.0 °C): 1.13; ΔΔG for conversion of Form 1 to Form 4 (energy gap) ([2]; between 25.0 and 65.0 °C): 0.0502 to 0.0837 kcal/mol; Form 1 and Form 4 ΔΔG ([2]; 25.0 °C): 0.0837 kcal/mol; Form 1 and Form 4 ΔΔG ([2]; 35.0 °C): 0.0789 kcal/mol; Form 1 and Form 4 ΔΔG ([2]; 45.0 °C): 0.0502 kcal/mol; Form 1 and Form 4 ΔΔG ([2]; 55.0 °C): 0.0717 kcal/mol; Form 1 and Form 4 ΔΔG ([2]; 65.0 °C): 0.0789 kcal/mol
C#C[C@]1(CO)O[C@@H](n2cnc3c(N)nc(F)nc32)C[C@@H]1O [Form 2, 4′-Ethynyl-2-fluoro-2′-deoxyadenosine] | 2.43 ± 0.01 | 3.20 ± 0.03 | 4.39 ± 0.04 | 5.79 ± 0.09 | 7.72 ± 0.12 | least stable phase | 
C#C[C@]1(CO)O[C@@H](n2cnc3c(N)nc(F)nc32)C[C@@H]1O [Form 4, 4′-Ethynyl-2-fluoro-2′-deoxyadenosine] | 1.87 ± 0.02 | 2.14 ± 0.02 | 3.18 ± 0.01 | 4.24 ± 0.01 | 6.05 ± 0.05 | most thermodynamically stable phase | Critical water activity, EFdA monohydrate/Form 4 system [3]: 0.3
C#C[C@]1(CO)O[C@@H](n2cnc3c(N)nc(F)nc32)C[C@@H]1O [Form MH, 4′-Ethynyl-2-fluoro-2′-deoxyadenosine] |  |  |  |  |  |  | Crystal form after HME processing ([4]; HME high shear Process B): converted the Form MH phase into anhydrate Form 4; Crystal form after HME processing ([4]; HME low shear Process A): converted the Form MH phase into anhydrate Form 1 and anhydrate Form 2
